# Data taken from patent US20230364111A1 (priority 2020, published 2023).
# Entries after “also recorded” stand apart in the source; their conditions may differ. Like-named read-outs stand apart in the source and are kept apart here.
# Tests used:
# SARS-CoV-2 Wk-521 strain = assay: SARS-CoV-2 infection assay, viral RNA in culture supernatant (VeroE6/TMPRSS2 cells); type: cell-based
# in vitro [1] = conditions: African green monkey
# in vitro [2] = conditions: human
# [3] = for Mean Oxy232 Levels in Lung Tissue (ng/g) / Mean Oxy232 Levels in Lung Tissue (μM): oral 200 mg/kg
# [4] = test system: SARS-CoV-2 (isolate USA WA1/2020); assay: SARS-CoV-2 infection of Calu-3 cells (dsRNA+ cells, automated microscopy); type: cell-based
# Procedure: (§1) FIGS. 12A-12C depict dose-response curves for Oxy232. (FIG. 12A) Secreted viral RNA in the VeroE6 culture supernatant 24 h post-inoculation was quantified by real-time RT-PCR. Cell viability of Oxy232 treated cells evaluated with an MTT assay. (FIG. 12B) Secreted viral RNA of 3 SARS-CoV-2 strains in the VeroE6 culture supernatant 24 h post-inoculation was quantified by real-time RT-PCR. (FIG. 12C) Calu-3 (ATCC) cells were pretreated with Oxy232 for 2 hours prior to continuous infection with SARS-CoV-2 (isolate USA WA1/2020) at MOI=0.5. 48 h post-infection, cells were fixed, immune-strained, and imaged by automated microscopy for infection (dsRNA+ cells/total cell number) and cell number.
# According to a previously published report (Ohashi et al., Identification of Anti-Severe Acute Respiratory Syndrome-Related Coronavirus 2 (SARS-CoV-2) Oxysterol Derivatives In Vitro. Int J Mol Sci. 2021; 22(6):3163. PMCID: PMC8003796) inventors have tested a collection of naturally occurring and semisynthetic oxysterol derivatives in a SARS-CoV-2 cell culture infection assay in VeroE6/TMPRSS2 cells. […] See, Ohashi et al., Int J Mol Sci. 2021; 22(6):3163 and Dittmar et al. Drug repurposing screens reveal cell-type-specific entry pathways and FDA-approved drugs active against SARS-Cov-2. Cell Rep. […] PMCID: PMC7985926. […] Without wishing to be bound by a theory, biological activities of oxysterols, including measures of cell viability, can heavily depend on in vitro assay conditions, such as the fetal bovine serum concentration or the duration of pretreatment with the compounds, among other factors, that may not translate to the in vivo safety of the compounds.
# Calu-3 cells = conditions: at higher concentrations; automated microscopy
# [5] = test system: SARS-CoV-2 TY7-501 (Brazil strain); assay: SARS-CoV-2 TY7-501 strain infection in VeroE6/TMPRSS2 cells; type: cell-based; conditions: viral RNA 24 h post-inoculation
# Procedure: as §1
# (§2) According to a previously published report (Ohashi et al., Identification of Anti-Severe Acute Respiratory Syndrome-Related Coronavirus 2 (SARS-CoV-2) Oxysterol Derivatives In Vitro. Int J Mol Sci. 2021; 22(6):3163. PMCID: PMC8003796) inventors have tested a collection of naturally occurring and semisynthetic oxysterol derivatives in a SARS-CoV-2 cell culture infection assay in VeroE6/TMPRSS2 cells. […] See, Ohashi et al., Int J Mol Sci. 2021; 22(6):3163 and Dittmar et al. Drug repurposing screens reveal cell-type-specific entry pathways and FDA-approved drugs active against SARS-Cov-2. Cell Rep. […] PMCID: PMC7985926. […]
# Hedgehog (Hh) signaling = type: cell-based; conditions: 10 μM; NIH3T3 cells with CAPAN-1 conditioned medium containing Shh
# VeroE6/TMPRSS2 cells = conditions: MTT assay; 24 h; VeroE6/TMPRSS2 cells
# [6] = test system: SARS-CoV-2 TY8-612 (South Africa strain); assay: SARS-CoV-2 TY8-612 strain infection in VeroE6/TMPRSS2 cells; type: cell-based; conditions: viral RNA 24 h post-inoculation
# Procedure: as §1, §2
# TGFβ signaling = type: cell-based; conditions: 10 μM; NIH3T3 cells stimulated with 20 ng/mL TGFβ
# [7] = test system: double-membrane vesicles (DMVs) in SARS-CoV-2-infected cells; assay: Electron microscopy of double-membrane vesicle (DMV) formation; type: cell-based; conditions: 10 μM Oxy210, Oxy232 (10 μM)
smiles,measurement,setting,value
"CC[C@@](O)(CCc1cccnc1)[C@H]1CC[C@H]2[C@@H]3CC[C@H]4C[C@@H](O)CC[C@]4(C)[C@H]3CC[C@]12C [Oxy232, (3S,5S,8R,9S,10S,13S,14S,17S)-17-((R)-3-hydroxy-1-(pyridin-3-yl)pentan-3-yl)-10,13-dimethylhexadecahydro-1H-cyclopenta[a]phenanthren-3-ol]",viral RNA in the culture supernatant,"SARS-CoV-2 Wk-521 strain; 24 h post-inoculation, natural oxysterols up to 30 μM, semi-synthetic up to 15 μM",reduced viral RNA level in a dose-dependent manner
same,IC50,"SARS-CoV-2 Wk-521 strain; Severe acute respiratory syndrome coronavirus 2, Vero C1008, read-out: IC50 VeroE6 cells (ng/mL)",2370 ng/mL
same,IC90,"SARS-CoV-2 Wk-521 strain; Severe acute respiratory syndrome coronavirus 2, Vero C1008, read-out: IC90 VeroE6 cells (ng/mL), Table 6, same value in mass units",3250 ng/mL
same,IC50,"SARS-CoV-2 Wk-521 strain; Severe acute respiratory syndrome coronavirus 2, Vero C1008, SARS-CoV-2, VeroE6, read-out: IC50 (VeroE6)",5.4 µM
same,IC90,"SARS-CoV-2 Wk-521 strain; Severe acute respiratory syndrome coronavirus 2, Vero C1008, SARS-CoV-2, VeroE6, read-out: IC90 (VeroE6)",7.8 µM
same,IC50,"SARS-CoV-2 Wk-521 strain; Severe acute respiratory syndrome coronavirus 2, Vero C1008, Table 6, read-out: IC50 VeroE6 cells",5.4 µM
same,IC90,"SARS-CoV-2 Wk-521 strain; Severe acute respiratory syndrome coronavirus 2, Vero C1008, Table 6, read-out: IC90 VeroE6 cells",7.8 µM
same,IC90,"SARS-CoV-2 Wk-521 strain; Severe acute respiratory syndrome coronavirus 2, VeroE6/TMPRSS2, 24 h, SARS-CoV-2 viral RNA in culture supernatant, 24 h post-inoculation, VeroE6/TMPRSS2 cells, read-out: IC90",7.8 µM
same,IC50,"SARS-CoV-2 Wk-521 strain; Severe acute respiratory syndrome coronavirus 2, SARS-CoV-2 viral RNA in culture supernatant, 24 h post-inoculation, VeroE6/TMPRSS2 cells, read-out: IC50",5.4 µM
same,IC90 VeroE6 cells,"SARS-CoV-2 Wk-521 strain; Table 6, same value in mass units",3429 ng/mL
same,reduction of viral RNA production at the maximum,SARS-CoV-2 Wk-521 strain; at 15 μM,99.9%
same,anti-SARS-CoV-2 activity,"SARS-CoV-2 Wk-521 strain; cell-based assay, VeroE6/TMPRSS2",superior anti-SARS-CoV-2 activity; also recorded: anti-SARS-CoV-2 activity comparable to Oxy210; also recorded: significant anti SARS-CoV-2 activity
same,viral RNA levels in the culture supernatant,"SARS-CoV-2 Wk-521 strain; oxysterol derivatives at 10 or 30 uM, 24 h post-inoculation, VeroE6/TMPRSS2",strongly reduced viral RNA levels
same,SARS-CoV-2 replication,SARS-CoV-2 Wk-521 strain; statement in words,drastically reduced SARS-CoV-2 replication
same,viral inhibition,"SARS-CoV-2 Wk-521 strain; tested in multiple studies, VeroE6/TMPRSS2",greater than 99%
same,CC50,in vitro [1],> 15 µM
same,CC50,in vitro [2],29.4 µM
same,Mean Oxy232 Levels in Lung Tissue (ng/g),"[3]; mice, time 0 h",0 ng/g
same,Mean Oxy232 Levels in Lung Tissue (μM),"[3]; mice, time 0 h",0 µM
same,Mean Oxy232 Levels in Lung Tissue (ng/g),"[3]; mice, time 0.25 h",1500 ng/g
same,Mean Oxy232 Levels in Lung Tissue (μM),"[3]; mice, time 0.25 h",3.41 µM
same,Mean Oxy232 Levels in Lung Tissue (ng/g),"[3]; mice, time 0.5 h",8055 ng/g
same,Mean Oxy232 Levels in Lung Tissue (μM),"[3]; mice, time 0.5 h",18.32 µM
same,Mean Oxy232 Levels in Lung Tissue (ng/g),"[3]; mice, time 1 h",9427 ng/g
same,Mean Oxy232 Levels in Lung Tissue (μM),"[3]; mice, time 1 h",21.44 µM
same,Mean Oxy232 Levels in Lung Tissue (ng/g),"[3]; mice, time 2 h",7764 ng/g
same,Mean Oxy232 Levels in Lung Tissue (μM),"[3]; mice, time 2 h",17.66 µM
same,Mean Oxy232 Levels in Lung Tissue (ng/g),"[3]; mice, time 4 h",2916 ng/g
same,Mean Oxy232 Levels in Lung Tissue (μM),"[3]; mice, time 4 h",6.63 µM
same,Mean Oxy232 Levels in Lung Tissue (ng/g),"[3]; mice, time 8 h",673 ng/g
same,Mean Oxy232 Levels in Lung Tissue (μM),"[3]; mice, time 8 h",1.53 µM
same,Mean Oxy232 Levels in Lung Tissue (ng/g),"[3]; mice, time 24 h",122 ng/g
same,Mean Oxy232 Levels in Lung Tissue (μM),"[3]; mice, time 24 h",0.28 µM
same,tolerability of oral dosing,[3]; oral dosing in mice,well tolerated
same,concentrations in lung tissue homogenate compared to plasma,"[3]; single dose 200 mg/kg, mice",generally higher than in plasma
same,time lung homogenate concentration above Calu-3 IC50 levels,"[3]; single dose 200 mg/kg, mice",more than 3.5 h
same,time lung homogenate concentration above VeroE6 IC50 levels,"[3]; single dose 200 mg/kg, mice",5 h
same,time plasma concentration above IC50 levels for antiviral activity (VeroE6/TMPRSS2),"[3]; single dose 200 mg/kg, mice",more than 3 hours
same,IC50,"[4]; Severe acute respiratory syndrome coronavirus 2, Calu-3, read-out: IC50 Calu-3 cells (ng/ml)",3050 ng/mL
same,IC90,"[4]; Severe acute respiratory syndrome coronavirus 2, Calu-3, read-out: IC90 Calu-3 cells (ng/ml)",5920 ng/mL
same,IC50,"[4]; Severe acute respiratory syndrome coronavirus 2, Calu-3, Table 6, read-out: IC50 Calu-3 cells",6.9 µM
same,IC90,"[4]; Severe acute respiratory syndrome coronavirus 2, Calu-3, Table 6, read-out: IC90 Calu-3 cells",13.5 µM
same,IC50,"[4]; Severe acute respiratory syndrome coronavirus 2, SARS-CoV-2 USA WA1/2020, MOI=0.5, 48 h post-infection, Calu-3, read-out: IC50 (Calu-3)",6.9 µM
same,IC90,"[4]; Severe acute respiratory syndrome coronavirus 2, SARS-CoV-2 USA WA1/2020, MOI=0.5, 48 h post-infection, Calu-3, read-out: IC90 (Calu-3)",13.5 µM
same,antiviral activity in Calu-3 human lung epithelial cells,"[4]; USA WA1/2020 isolate, at NIAID",confirmed the antiviral activity
same,cell viability in Calu-3 cells,Calu-3 cells,do affect cell viability
same,activity against the TY7-501 strain,[5],undiminished activity
same,inhibitory activity toward Hh signaling (Gli1 mRNA),Hedgehog (Hh) signaling,retains inhibitory activity toward Hh signaling
same,CC50,VeroE6/TMPRSS2 cells,> 15 µM
same,activity against the TY8-612 strain,[6],undiminished activity
same,TGFβ inhibitory properties (CTGF mRNA),TGFβ signaling,devoid of significant TGFβ pathway inhibitory properties
same,DMV formation in SARS-CoV-2-infected cells,[7],inhibit DMV formation
